These results are taken from patent US20060122279A1, “Hydrophobic polyamine amides as potent lipopolysaccharide sequestrants” (priority 2004, published 2006).

The format of experiment [1] is binding, E. coli 0111:B4. The following applies: E. coli 0111:B4 LPS; Tables 1-3; read-out: ED50 (half-maximal effective displacement of BC probe from LPS). As to the method: Polymyxin B (PMB), a peptide antibiotic known to bind and neutralize LPS^47 serves as the positive control and reference compound for every plate, enabling the quantitative assessment of repeatability and reproducibility (CV and Z′ factors) for the assay. Robotic liquid handling is performed on a Precision 2000 automated microplate pipetting system, programmed using the Precision Power software, Bio-Tek Instruments Inc., VT, USA. Stock solutions of LPS (5 mg/ml; E. coli 0111:B4; procured from Sigma) and BC (500 μM) are prepared in Tris buffer (pH 7.4, 50 mM). 1 ml each of the LPS and BC stocks are mixed and diluted in Tris buffer to a final volume of 100 ml, yielding final concentrations of 50 μg/ml of LPS and 5 μM BC. 40 μl of this BC:LPS mixture is added to each well of the plate using the Precision 2000. Fluorescence measurements are made at 25° C. on a Fluoromax-3 with Micromax Microwell 384-well plate reader, using DataMax software, Jobin Yvon Inc., N.J. The BC excitation wavelength is 580 nm, emission spectra are taken at 620 nm with both emission and excitation monochromator bandpasses set at 5 nm.

Experiment [2] has as its system CF-1 mice. The experiment is described as follows: Mouse lethality model of endotoxic shock (D-galactosamine sensitized, LPS challenge). Type of experiment: in vivo. The conditions noted are these: for time window of protection, in words: 200 ng/mouse LPS. As to the method:
Based on the results of the displacement assays, NO and cytokine inhibition data, 8 is elected for detailed evaluation in animal experiments. […] In all experiments reported herein, a supralethal dose of 200 ng per mouse, in a final volume of 0.2 ml saline is used. The dose-response of protection afforded by 8 is depicted in Table 4. Previous studies with labile spermine conjugates such as DOSPER^37 had shown the window of protection to be very short, a 15 minute window of protection. Compound 8, with its greater anticipated hydrolytic stability, is examined to see if it affords a more extended time-window of protection. 200 μg of 8 in a final volume of 0.2 ml injections are administered intraperitoneally at times of −6, −4, −2, 0, +1, and +2 relative to time-zero, the time at which all mice are challenged with 200 ng/mouse LPS injections. […] Testing to see if in this treatment regime, which is characterized by a slow, gradual systemic absorption from the site of injection, a longer duration of protection would be observed is carried out. Lethality is once again assessed 24 hours following the final injection.
Female, outbred, 9- to 11-week-old CF-1 mice (Charles River, Wilmington, Mass.) weighing 22-28 g are used as described elsewhere.^37 Upon arrival, the mice are allowed to acclimatize for a week prior to experimentation, housed 5 per cage in a controlled environment at the AALAC-accredited University of Kansas Animal Care Facility, and allowed access to mouse chow and water ad libitum. […] In experiments designed to test dose-response effects of the acyl-spermines in affording protection against LPS-induced lethality, mice receive graded doses of compound diluted in saline, i.p., in one flank, immediately before a supralethal (200 ng) LPS challenge, which is administered as a separate i.p. injection into the other flank. In experiments in which the temporal window of protection is to be examined, a fixed dose of 200 μg/mouse of compound is administered at various times, before, or after supralethal (200 ng/mouse) LPS challenge. Lethality is determined at 24 h post LPS challenge.

Several values for one entry are separate records, joined by “and”; a condition that tells them apart may be missing. Equal entries are not always repeated. Marks after values point to notes of the source that are not given here.

As to `CCCCCCCCCCCCCCCCCC(=O)NCCCCC(N)C(=O)NCCCNCCCCNCCCN` [Compound 8, D-Lys-ε-(stearoyl)-N^1-spermine], the EC50 in experiment [1] stood at 8.8 µM. For the same compound, the “No. of live mice/total no. of mice tested” value in experiment [2] (10 μg/mouse i.p., immediately before 200 ng/mouse LPS, lethality at 24 h) is on record as 0/5; in experiment [2] (50 μg/mouse i.p., immediately before 200 ng/mouse LPS, lethality at 24 h), 1/5; in experiment [2] (100 μg/mouse i.p., immediately before 200 ng/mouse LPS, lethality at 24 h) it was 4/5*; in experiment [2] (200 μg subcutaneously at 0 h relative to LPS (200 ng/mouse)) it was 1/5; in experiment [2] (200 μg subcutaneously at +2 h relative to LPS (200 ng/mouse)), 1/5; in experiment [2] (200 μg subcutaneously at −4 h relative to LPS (200 ng/mouse)) it was 5/5*. For the same compound, the “No. of live mice/total no. of mice tested” value in experiment [2] (200 μg subcutaneously at −8 h relative to LPS (200 ng/mouse)) was 3 of the 5 and 3/5; in experiment [2] (200 μg subcutaneously at −12 h relative to LPS (200 ng/mouse)) it was 3 of the 5 and 3/5; in experiment [2] (200 μg subcutaneously at −16 h relative to LPS (200 ng/mouse)), 3 of the 5 and 3/5; in experiment [2] (200 μg subcutaneously at −24 h relative to LPS (200 ng/mouse)), “Two of the 5 and 2/5”; in experiment [2] (200 μg/mouse i.p., immediately before 200 ng/mouse LPS, lethality at 24 h) it was 5/5*. The “time window of protection, in words” value is “significant protection up to 6 h prior to LPS challenge” in experiment [2] (200 μg i.p.) and “significant protection even when the compound is administered 16 h ahead of LPS challenge” in experiment [2] (200 μg subcutaneous). The “No. of live mice/total number of mice tested” value in experiment [2] (200 μg intraperitoneally at 0 h relative to LPS (200 ng/mouse)) was 4/5*; in experiment [2] (200 μg intraperitoneally at +1 h relative to LPS (200 ng/mouse)), 0/5*; in experiment [2] (200 μg intraperitoneally at +2 h relative to LPS (200 ng/mouse)) it was 2/5; in experiment [2] (200 μg intraperitoneally at −2 h relative to LPS (200 ng/mouse)), 4/5*; in experiment [2] (200 μg intraperitoneally at −4 h relative to LPS (200 ng/mouse)), 4/5*; in experiment [2] (200 μg intraperitoneally at −6 h relative to LPS (200 ng/mouse)) it was 3/5.
